# Values joined by “and” are separate entries in the source; they are usually repeats but may differ in a detail not shown here. Equal entries are not always repeated.
# Assay: radiation dosimetry (OLINDA/EXM) from baboon PET data
# Format: Reference Adult Male based on baboon PET imaging data
# Description: For each time-point, the activity concentration (in Bq/cm^3) was measured in each of the 14 delineated organs and multiplied by the organ volume to obtain the total activity per time point per organ. The measured values were then decay-corrected and divided by the baboon organ mass, determined by the CT density and volume from the drawn contours, and the injected radioactivity to obtain the fraction of initial radioactivity per gram (FIA/g) for each time point and each organ. The baboon FIA/g values were then converted to human FIA (per organ) using the following equation (Schwartz et al., 2011; Woodard et al., 1975): […]
# That approach assumes that the concentration of activity in a particular tissue relative to the overall concentration in the whole body is preserved across species (i.e., organ concentration/total body concentration is the same for baboon and man). The resulting human FIA values were plotted as a function of time (nine data points) for each organ and fit to a bi-exponential expression: FIA(t)=A1.e^−(λ1^bio^.t)+A2.e^−(Δ2^bio^.t) (2)
# where A1, A2, λ1bio, and λ2bio are fit parameters. The sum of A1 and A2 give the back-extrapolated, time-zero fraction of administered radioactivity in each organ, and λ1bio and λ2bio are the biological clearance constants. The equation for the time-integrated activity coefficient [TIAC, previously known as residence time (Bolch et al., 2009) for each source organ was obtained, as its name implies, by integrating equation (2) and introducing a physical decay term, λφ, which depends on the isotope used:
# TIACs were calculated for ^90Y, ^177Lu and ^86Y, with their corresponding physical decay constants: ^90Y λφ=0.01083 h^−1 (T1/2=64.0 h); ^177Lu λφ=0.00429 h^−1 (T1/2=161.52 h) and ^86Y λφ=0.04702 h^−1 (T1/2=14.74 h), respectively voiding. Radiation absorbed doses were obtained by converting time-integrated activity to absorbed doses according to the MIRD absorbed fraction methodology (Bolch et al., 2009) through the use of the OLINDA/EXM software (Stabin et al., 2005). The TIAC for the urinary bladder was obtained using the MIRD bladder model implemented in OLINDA/EXM. Input to that model requires the whole-body TIAC, which was obtained from the equation FIA(t)=A. e^(−λ^bio^t) fitted to whole-body retention kinetics. The voiding interval was set to 2 h. The TIACs were then input into OLINDA/EXM (Stabin et al., 2005), and the resulting absorbed dose per unit of radioactivity obtained for the 14 organs. The specific kidney model in OLINDA/EXM was used to obtain the renal cortex dose values. The absorbed dose from organs external to the kidney was added to the renal cortex dose calculated from the internal kidney model. The specific prostate model was used for prostate self-dose, and external dose to the bladder was added as a surrogate for the whole body to prostate dose. The self-dose component of the absorbed dose per unit activity for the salivary glands was obtained using 3D-RD Monte Carlo (EGSnrc) and a human CT with delineated salivary glands. The cross-dose component was taken by assuming the same cross-dose for a like-sized organ (pancreas).
# Measured activity concentration (in Bq/cm^3) values per time point per organ were decay-corrected and divided by the baboon organ mass, determined by the CT density and volume from the drawn contours, and the injected radioactivity to obtain the fraction of initial radioactivity per gram (FIA/g) for each time point and each organ. The baboon FIA/g values were then converted to human FIA (per organ) using the related equation (Olszewski et al., 2004; Schwartz et al., 2011). The resulting human FIA values were then plotted as a function of time and fit to a bi-exponential expression and the value for the time-integrated activity coefficient (TIAC, previously known as residence time (Woodard et al., 1975)) for each source organ was calculated. […]
compound,measurement,setting,value
O=C([O-])CN1CCN(CC(=O)[O-])CCN(CC(=O)[O-])C(Cc2ccc(NC(=S)NCCCCNC(=O)CCCCCCC(=O)NCCCC[C@H](NC(=O)N[C@@H](CCC(=O)O)C(=O)O)C(=O)O)cc2)CN(CC(=O)[O-])CC1.[86Y+3] (stereo partly drawn) [^86Y-6],"Organ absorbed dose, Testes",^90Y,3.46E−02 mGy/MBq
same,"Organ absorbed dose, Thymus",^90Y,3.46E−02 mGy/MBq
same,"Organ absorbed dose, Thyroid",^90Y,3.46E−02 mGy/MBq
same,"Organ absorbed dose, ULI wall",^90Y,6.29E−02 mGy/MBq
same,"Organ absorbed dose, Urinary bladder wall",^90Y,1.25 mGy/MBq
same,"Organ absorbed dose, Uterus",^90Y,3.46E−02 mGy/MBq
same,"Time-integrated activity coefficient (residence time), Brain",^90Y,1.79E−02 MBq-h/MBq
same,"Time-integrated activity coefficient (residence time), Heart contents",^90Y,3.15E−02 MBq-h/MBq
same,"Time-integrated activity coefficient (residence time), Kidneys",^90Y,6.43E−01 MBq-h/MBq
same,"Time-integrated activity coefficient (residence time), Liver",^90Y,1.77E−01 MBq-h/MBq
same,"Time-integrated activity coefficient (residence time), Lungs",^90Y,1.22E−01 MBq-h/MBq
same,"Time-integrated activity coefficient (residence time), Muscle",^90Y,6.85E−01 MBq-h/MBq
same,"Time-integrated activity coefficient (residence time), Pancreas",^90Y,8.42E−03 MBq-h/MBq
same,"Time-integrated activity coefficient (residence time), Prostate",^90Y,1.42E−03 MBq-h/MBq
same,"Time-integrated activity coefficient (residence time), Remainder",^90Y,4.74 MBq-h/MBq
same,"Time-integrated activity coefficient (residence time), Renal cortex",^90Y,5.27E−01 MBq-h/MBq
same,"Time-integrated activity coefficient (residence time), Salivary Glands",^90Y,4.88E−02 MBq-h/MBq
same,"Time-integrated activity coefficient (residence time), Small intestine",^90Y,1.32E−02 MBq-h/MBq
same,"Time-integrated activity coefficient (residence time), Spleen",^90Y,1.15E−02 MBq-h/MBq
same,"Time-integrated activity coefficient (residence time), Stomach",^90Y,8.06E−03 MBq-h/MBq
same,"Time-integrated activity coefficient (residence time), ULI",^90Y,2.51E−02 MBq-h/MBq
same,"Time-integrated activity coefficient (residence time), Ur. bladder contents",^90Y,9.54E−01 MBq-h/MBq
same,"Organ absorbed dose, Adrenals",^177Lu,6.96E−03 mGy/MBq
same,"Organ absorbed dose, Brain",^177Lu,1.48E−03 mGy/MBq
same,"Organ absorbed dose, Breasts",^177Lu,6.08E−03 mGy/MBq
same,"Organ absorbed dose, Gallbladder wall",^177Lu,6.79E−03 mGy/MBq
same,"Organ absorbed dose, Heart wall",^177Lu,9.54E−03 mGy/MBq
same,"Organ absorbed dose, Kidneys",^177Lu,2.10E−01 mGy/MBq
same,"Organ absorbed dose, LLI wall",^177Lu,7.06E−03 mGy/MBq
same,"Organ absorbed dose, Liver",^177Lu,9.37E−03 mGy/MBq
same,"Organ absorbed dose, Lungs",^177Lu,1.16E−02 mGy/MBq
same,"Organ absorbed dose, Muscle",^177Lu,3.26E−03 mGy/MBq
same,"Organ absorbed dose, Osteogenic cells",^177Lu,1.94E−02 mGy/MBq
same,"Organ absorbed dose, Ovaries",^177Lu,7.05E−03 mGy/MBq
same,"Organ absorbed dose, Pancreas",^177Lu,9.34E−03 mGy/MBq
same,"Organ absorbed dose, Prostate",^177Lu,7.94E−03 mGy/MBq
same,"Organ absorbed dose, Red marrow",^177Lu,5.04E−03 mGy/MBq
same,"Organ absorbed dose, Renal cortex",^177Lu,0.245 mGy/MBq and 2.45E−01 mGy/MBq
same,"Organ absorbed dose, Salivary glands",^177Lu,4.76E−02 mGy/MBq
same,"Organ absorbed dose, Skin",^177Lu,6.01E−03 mGy/MBq
same,"Organ absorbed dose, Small intestine",^177Lu,8.30E−03 mGy/MBq
same,"Organ absorbed dose, Spleen",^177Lu,7.16E−03 mGy/MBq
same,"Organ absorbed dose, Stomach wall",^177Lu,7.88E−03 mGy/MBq
same,"Organ absorbed dose, Testes",^177Lu,6.56E−03 mGy/MBq
same,"Organ absorbed dose, Thymus",^177Lu,6.29E−03 mGy/MBq
same,"Organ absorbed dose, Thyroid",^177Lu,6.26E−03 mGy/MBq
same,"Organ absorbed dose, ULI wall",^177Lu,1.16E−02 mGy/MBq
same,"Organ absorbed dose, Urinary bladder wall",^177Lu,2.14E−01 mGy/MBq
same,"Organ absorbed dose, Uterus",^177Lu,7.76E−03 mGy/MBq
same,"Time-integrated activity coefficient (residence time), Brain",^177Lu,1.89E−02 MBq-h/MBq
same,"Time-integrated activity coefficient (residence time), Heart contents",^177Lu,3.30E−02 MBq-h/MBq
same,"Time-integrated activity coefficient (residence time), Kidneys",^177Lu,7.24E−01 MBq-h/MBq
same,"Time-integrated activity coefficient (residence time), Liver",^177Lu,1.88E−01 MBq-h/MBq
same,"Time-integrated activity coefficient (residence time), Lungs",^177Lu,1.28E−01 MBq-h/MBq
same,"Time-integrated activity coefficient (residence time), Muscle",^177Lu,8.15E−01 MBq-h/MBq
same,"Time-integrated activity coefficient (residence time), Pancreas",^177Lu,9.00E−03 MBq-h/MBq
same,"Time-integrated activity coefficient (residence time), Prostate",^177Lu,1.48E−03 MBq-h/MBq
same,"Time-integrated activity coefficient (residence time), Remainder",^177Lu,4.84 MBq-h/MBq
same,"Time-integrated activity coefficient (residence time), Renal cortex",^177Lu,6.02E−01 MBq-h/MBq
same,"Time-integrated activity coefficient (residence time), Salivary Glands",^177Lu,4.97E−02 MBq-h/MBq
same,"Time-integrated activity coefficient (residence time), Small intestine",^177Lu,1.43E−02 MBq-h/MBq
same,"Time-integrated activity coefficient (residence time), Spleen",^177Lu,1.29E−02 MBq-h/MBq
same,"Time-integrated activity coefficient (residence time), Stomach",^177Lu,8.46E−03 MBq-h/MBq
same,"Time-integrated activity coefficient (residence time), ULI",^177Lu,2.64E−02 MBq-h/MBq
same,"Time-integrated activity coefficient (residence time), Ur. bladder contents",^177Lu,1.00 MBq-h/MBq
same,"highest mean absorbed dose, renal cortex",overview text b262,1.9 mGy per MBq
